Experimental data taken from PubChem BioAssay AID330 (DTP/NCI, 2004).
“And” between values parts separate entries of the source, which are not always exact repeats. Identical values can stand only once. Inconclusive results and toxic doses are left out.

System: P388 leukemia ip, CD2F1 mice, survival T/C
Experiment: NCI In Vivo Anticancer Drug Screen. Data for tumor model P388 Leukemia (intraperitoneal) in CD2F1 (CDF1) mice
Conditions: endpoint: median survival time, higher = longer survival
Outline: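 Mice carrying the transplanted tumor received test compound or vehicle. Survival was recorded in each group, and the value is the treated-group measurement divided by that of the vehicle-treated control group.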

[1] = dose: 50.0 mg/kg/injection, schedule: Q01DX005 (ip), vehicle: saline with Tween-80
[2] = dose: 100.0 mg/kg/injection, schedule: Q01DX005 (ip), vehicle: saline with Tween-80
[3] = dose: 200.0 mg/kg/injection, schedule: Q01DX005 (ip), vehicle: saline with Tween-80
[4] = dose: 50.0 mg/kg/injection, schedule: Q01DX009 (ip), vehicle: saline with Tween-80
[5] = dose: 100.0 mg/kg/injection, schedule: Q01DX009 (ip), vehicle: saline with Tween-80
[6] = dose: 200.0 mg/kg/injection, schedule: Q01DX009 (ip), vehicle: saline with Tween-80
[7] = dose: 50.0 mg/kg/injection, schedule: Q01DX009 (ip), vehicle: Klucel (hydroxypropylcellulose) (HPC)
[8] = dose: 100.0 mg/kg/injection, schedule: Q01DX009 (ip), vehicle: Klucel (hydroxypropylcellulose) (HPC)
[9] = dose: 50.0 mg/kg/injection, schedule: Q01DX005 (ip), vehicle: saline
[10] = dose: 100.0 mg/kg/injection, schedule: Q01DX005 (ip), vehicle: saline
[11] = dose: 25.0 mg/kg/injection, schedule: Q04DX002 (ip), vehicle: saline with Tween-80
[12] = dose: 50.0 mg/kg/injection, schedule: Q04DX002 (ip), vehicle: saline with Tween-80
[13] = dose: 50.0 mg/kg/injection, schedule: Q01DX009 (ip), vehicle: saline
[14] = dose: 100.0 mg/kg/injection, schedule: Q01DX009 (ip), vehicle: saline
[15] = dose: 200.0 mg/kg/injection, schedule: Q01DX009 (ip), vehicle: saline
[16] = dose: 60.0 mg/kg/injection, schedule: Q01DX005 (ip), vehicle: saline with Tween-80
[17] = dose: 120.0 mg/kg/injection, schedule: Q01DX005 (ip), vehicle: saline with Tween-80
[18] = dose: 240.0 mg/kg/injection, schedule: Q01DX005 (ip), vehicle: saline with Tween-80
[19] = dose: 200.0 mg/kg/injection, schedule: Q01DX009 (ip), vehicle: Klucel (hydroxypropylcellulose) (HPC)
[20] = dose: 50.0 mg/kg/injection, schedule: Q01DX005 (ip), vehicle: Klucel (hydroxypropylcellulose) (HPC)
[21] = dose: 100.0 mg/kg/injection, schedule: Q01DX005 (ip), vehicle: Klucel (hydroxypropylcellulose) (HPC)
[22] = dose: 200.0 mg/kg/injection, schedule: Q01DX005 (ip), vehicle: Klucel (hydroxypropylcellulose) (HPC)

O=CCCOC1CCCCO1 (centres undefined)
T/C (dose: 50.0 mg/kg/injection, schedule: Q01DX009 (ip), vehicle: other): 116 % of control
T/C (dose: 100.0 mg/kg/injection, schedule: Q01DX009 (ip), vehicle: other): 110 % of control
T/C (dose: 200.0 mg/kg/injection, schedule: Q01DX009 (ip), vehicle: other): 104 % of control

O=C1NC(=O)C2(Cc3cccc4cccc2c34)N1 (centres undefined)
T/C [1]: 103 % of control
T/C [2]: 100 % of control
T/C [3]: 99 % of control

CCC(/C=C/C1OC(=O)C=CC1C)=C\C(C)C/C=C/C(C)=C/C(C)C(=O)C(C)C(O)C(C)C/C(C)=C/C(=O)O (centres undefined)
T/C (dose: 12.5 micrograms/kg/injection, schedule: Q01DX005 (ip), vehicle: saline + alcohol): 118 % of control
T/C (dose: 100.0 micrograms/kg/injection, schedule: Q01DX005 (ip), vehicle: saline + alcohol): 92 % of control

CC(C)C1=CC23CCC4C(C)(C(=O)O)CCCC4(C)C2CC1OO3 (centres undefined)
T/C (dose: 100.0 mg/kg/injection, schedule: Q01DX009 (ip), vehicle: saline sonified): 95 % of control
T/C (dose: 200.0 mg/kg/injection, schedule: Q01DX009 (ip), vehicle: saline sonified): 100 % of control
T/C (dose: 400.0 mg/kg/injection, schedule: Q01DX009 (ip), vehicle: saline sonified): 100 % of control

CCC(=O)C(=O)c1ccc(O)c(C)c1O
T/C [4]: 100 % of control
T/C [5]: 96 % of control
T/C [6]: 90 % of control

NC(C(=O)O)c1ccc(CBr)cc1 (centres undefined)
T/C (dose: 25.0 mg/kg/injection, schedule: Q04DX003 (ip), vehicle: saline with Tween-80): 151 % of control
T/C (dose: 100.0 mg/kg/injection, schedule: Q04DX003 (ip), vehicle: saline with Tween-80): 151 % of control and 165 % of control

C1CCC([Se][Se]C2CCCCC2)CC1
T/C [7]: 103 % of control
T/C [8]: 94 % of control

CN(C)c1ccc(/C=C/C(=O)c2nc3ccccc3[nH]2)cc1
T/C (dose: 100.0 mg/kg/injection, schedule: Q04DX003 (ip), vehicle: Klucel (hydroxypropylcellulose) (HPC)): 100 % of control
T/C (dose: 200.0 mg/kg/injection, schedule: Q04DX003 (ip), vehicle: Klucel (hydroxypropylcellulose) (HPC)): 100 % of control
T/C (dose: 400.0 mg/kg/injection, schedule: Q04DX003 (ip), vehicle: Klucel (hydroxypropylcellulose) (HPC)): 86 % of control

N#CCC1CCCC1=O (centres undefined)
T/C [4]: 103 % of control
T/C [5]: 99 % of control

NS(=O)(=O)Cc1noc2ccc(F)cc12
T/C [1]: 93 % of control
T/C [2]: 104 % of control
T/C [3]: 103 % of control

OCC1(c2cccnc2)OCCO1
T/C [9]: 99 % of control
T/C [10]: 101 % of control
T/C (dose: 200.0 mg/kg/injection, schedule: Q01DX005 (ip), vehicle: saline): 101 % of control

O=c1ccc2cc(-c3ccncc3)cnc2[nH]1
T/C [11]: 100 % of control
T/C [12]: 94 % of control

CCOC(=O)c1c2c(n(-c3ccccc3)c1C)C(=O)c1ccccc1C2=O
T/C [13]: 99 % of control
T/C [14]: 92 % of control
T/C [15]: 98 % of control

COc1ccc(Cl)cc1NC(=O)c1ccco1
T/C [16]: 96 % of control
T/C [17]: 99 % of control
T/C [18]: 98 % of control

COc1cc(OC)c(OC)cc1/C=C1/N=C(c2ccccc2)OC1=O
T/C [4]: 99 % of control
T/C [5]: 92 % of control
T/C [6]: 93 % of control

ClCCN(CCN(CCCl)c1ccc2ccccc2c1)c1ccc2ccccc2c1
T/C [7]: 109 % of control
T/C [8]: 112 % of control
T/C [19]: 107 % of control

COC(=O)CS(=O)(=O)CCCCS(=O)(=O)CC(=O)OC
T/C [13]: 99 % of control
T/C [14]: 99 % of control
T/C [15]: 103 % of control

CC(=O)Nc1ccc(S(=O)(=O)NCCSS(=O)(=O)O)cc1
T/C [1]: 101 % of control
T/C [2]: 109 % of control
T/C [3]: 109 % of control

NS(=O)(=O)c1ccc2c(=O)c(C(=O)O)c[nH]c2c1
T/C (dose: 1.56 mg/kg/injection, schedule: Q01DX009 (ip), vehicle: saline): 98 % of control
T/C (dose: 3.12 mg/kg/injection, schedule: Q01DX009 (ip), vehicle: saline): 92 % of control
T/C (dose: 6.25 mg/kg/injection, schedule: Q01DX009 (ip), vehicle: saline): 92 % of control
T/C [13]: 101 % of control
T/C [14]: 96 % of control

O=C(Nc1ccc(S(=O)(=O)c2ccc(NC(=O)c3ccco3)cc2)cc1)c1ccco1
T/C [4]: 105 % of control
T/C [5]: 98 % of control
T/C [6]: 95 % of control

COc1ccc(NCc2ccc(C)cc2)cc1
T/C (dose: 100.0 mg/kg/injection, schedule: Q01DX001 (ip), vehicle: saline with Tween-80): 100 % of control
T/C (dose: 200.0 mg/kg/injection, schedule: Q01DX001 (ip), vehicle: saline with Tween-80): 108 % of control
T/C (dose: 400.0 mg/kg/injection, schedule: Q01DX001 (ip), vehicle: saline with Tween-80): 107 % of control

CCOC(=O)Nc1nc2c(SC#N)cc(C)cc2s1
T/C (dose: 12.5 mg/kg/injection, schedule: Q01DX009 (ip), vehicle: Klucel (hydroxypropylcellulose) (HPC)): 103 % of control
T/C (dose: 25.0 mg/kg/injection, schedule: Q01DX009 (ip), vehicle: Klucel (hydroxypropylcellulose) (HPC)): 96 % of control
T/C [7]: 88 % of control and 96 % of control

COC(=O)c1cc(=O)nc(N/N=C/c2ccc3c(c2)OCO3)s1
T/C (dose: 12.5 mg/kg/injection, schedule: Q01DX005 (ip), vehicle: saline with Tween-80): 99 % of control
T/C (dose: 25.0 mg/kg/injection, schedule: Q01DX005 (ip), vehicle: saline with Tween-80): 94 % of control
T/C [1]: 94 % of control

Cc1c2ncccc2c(C)c2c1[nH]c1ccccc12
T/C [11]: 100 % of control
T/C [12]: 91 % of control
T/C (dose: 100.0 mg/kg/injection, schedule: Q04DX002 (ip), vehicle: saline with Tween-80): 98 % of control
T/C (dose: 200.0 mg/kg/injection, schedule: Q04DX002 (ip), vehicle: saline with Tween-80): 89 % of control

CCN(CC)CCNc1ccc(CO)c2oc3ccc(OS(=O)(=O)c4ccc(C)cc4)cc3c(=O)c12
T/C [1]: 99 % of control
T/C [2]: 106 % of control
T/C [3]: 122 % of control

CC1CCCC2CCCOCN12 (centres undefined)
T/C (dose: 12.5 mg/kg/injection, schedule: Q01DX005 (ip), vehicle: Klucel (hydroxypropylcellulose) (HPC)): 107 % of control
T/C (dose: 12.5 mg/kg/injection, schedule: Q01DX005 (ip), vehicle: saline): 103 % of control
T/C (dose: 25.0 mg/kg/injection, schedule: Q01DX005 (ip), vehicle: Klucel (hydroxypropylcellulose) (HPC)): 106 % of control
T/C (dose: 25.0 mg/kg/injection, schedule: Q01DX005 (ip), vehicle: saline): 99 % of control
T/C [20]: 104 % of control
T/C [9]: 100 % of control and 104 % of control
T/C [21]: 101 % of control
T/C [10]: 122 % of control and 98 % of control

CC1CC=CCC1C1NC(C(=O)O)CS1 (centres undefined)
T/C (dose: 50.0 mg/kg/injection, schedule: Q01DX009 (ip), vehicle: suspension in saline): 106 % of control
T/C (dose: 100.0 mg/kg/injection, schedule: Q01DX009 (ip), vehicle: suspension in saline): 107 % of control and 88 % of control
T/C (dose: 200.0 mg/kg/injection, schedule: Q01DX009 (ip), vehicle: suspension in saline): 98 % of control and 96 % of control

[N-]=[N+]=NC1(N=[N+]=[N-])C(=O)c2cccc3c2N(CCC3)C1=O (centres undefined)
T/C [20]: 92 % of control
T/C [21]: 114 % of control
T/C [22]: 88 % of control

COc1cc([N+](=O)[O-])c(OC)cc1C(C)=O
T/C [20]: 96 % of control
T/C [21]: 93 % of control
T/C [22]: 100 % of control

CCCCCCCCCC#CC(=O)O
T/C [4]: 95 % of control
T/C [5]: 110 % of control
T/C [6]: 89 % of control

CCC12CCCN3CCc4c(n(c5ccc(Br)cc45)C(=O)/C(=N\O)C1)C32 (centres undefined)
T/C [16]: 101 % of control
T/C [17]: 97 % of control
T/C [18]: 97 % of control

N/C(=N\O)N(c1ccccc1)c1ccccc1
T/C (dose: 25.0 mg/kg/injection, schedule: Q01DX009 (ip), vehicle: saline with Tween-80): 97 % of control
T/C [4]: 98 % of control
T/C [5]: 99 % of control

CC12CC3(C)CC(C)(C1)CC(Br)(C2)C3
T/C [7]: 100 % of control
T/C [8]: 99 % of control
T/C [19]: 97 % of control

O=S(=O)(O)C(I)S(=O)(=O)O
T/C [13]: 91 % of control
T/C [14]: 94 % of control
